The results in this text go back to ChEMBL document CHEMBL1150342, “Novel 3-carboxamide-coumarins as potent and selective FXIIa inhibitors” (J Med Chem, 2008).

The target of assay [1] is T1, Plasma kallikrein (Homo sapiens, UniProt P03952). As to the kind of experiment: Inhibition of human kallikrein.
For assay [2], the target named is Coagulation factor VII/tissue factor (Homo sapiens) (UniProt P08709+P13726). As to the kind of experiment: Inhibition of human tissue factor/factor 7a at 50 uM.
Assay [3] deals with T2, Coagulation factor XII (Homo sapiens) (UniProt P00748).
T2 sequence (whole entry): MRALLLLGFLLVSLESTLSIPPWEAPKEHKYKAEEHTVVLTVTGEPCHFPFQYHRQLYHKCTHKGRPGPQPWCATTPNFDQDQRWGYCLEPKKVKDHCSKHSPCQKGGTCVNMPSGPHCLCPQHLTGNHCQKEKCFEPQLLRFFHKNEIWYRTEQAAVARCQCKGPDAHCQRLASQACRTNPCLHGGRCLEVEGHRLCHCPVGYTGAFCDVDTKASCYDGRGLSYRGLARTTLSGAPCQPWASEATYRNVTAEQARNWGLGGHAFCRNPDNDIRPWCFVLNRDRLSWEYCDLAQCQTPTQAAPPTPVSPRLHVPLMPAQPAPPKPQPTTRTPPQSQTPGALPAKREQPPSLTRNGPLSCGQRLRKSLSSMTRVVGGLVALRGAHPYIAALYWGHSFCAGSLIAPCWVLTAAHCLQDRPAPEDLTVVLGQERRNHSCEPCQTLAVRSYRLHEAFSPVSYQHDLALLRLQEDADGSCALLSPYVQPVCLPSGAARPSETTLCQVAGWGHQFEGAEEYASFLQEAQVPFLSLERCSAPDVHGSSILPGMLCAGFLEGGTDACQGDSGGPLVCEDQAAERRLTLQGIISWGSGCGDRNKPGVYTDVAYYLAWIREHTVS
As to the kind of experiment: Inhibition of human factor 12a at 50 uM.

The target of assay [4] is T3, Prothrombin (Homo sapiens, UniProt P00734). As to the kind of experiment: Inhibition of human thrombin.
The target of assay [5] is T4, Coagulation factor X (Homo sapiens, UniProt P00742). As to the kind of experiment: Inhibition of human factor 10a.
The target in assay [6] is T3, Prothrombin. As to the kind of experiment: Inhibition of human thrombin at 50 uM.
Assay [7] has as its target T1, Plasma kallikrein. As to the kind of experiment: Inhibition of human kallikrein at 50 uM.
The target of a further assay is T5, Coagulation factor XII (Homo sapiens, UniProt P00748).
T5 sequence (P00748 whole entry): T2 sequence (whole entry)
As to the kind of experiment: Inhibition of human factor 12a.

Assay [8] has as its target T4, Coagulation factor X. As to the kind of experiment: Inhibition of human factor 10a at 50 uM.
In assay [9] the target is Coagulation factor VII/tissue factor (Homo sapiens, UniProt P08709). As to the kind of experiment: Inhibition of human tissue factor/factor 7a. It counts as protein-complex assay.

Calls of active or inactive are those of the source. No cut-off for these calls is given here.

T4 sequence (P00742 41-179 limits assumed): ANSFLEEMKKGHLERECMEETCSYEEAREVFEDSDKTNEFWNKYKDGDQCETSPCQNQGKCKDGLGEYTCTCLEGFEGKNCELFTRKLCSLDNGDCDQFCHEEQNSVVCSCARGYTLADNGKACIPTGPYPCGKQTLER
T4 sequence (P00742 235-488 limits assumed): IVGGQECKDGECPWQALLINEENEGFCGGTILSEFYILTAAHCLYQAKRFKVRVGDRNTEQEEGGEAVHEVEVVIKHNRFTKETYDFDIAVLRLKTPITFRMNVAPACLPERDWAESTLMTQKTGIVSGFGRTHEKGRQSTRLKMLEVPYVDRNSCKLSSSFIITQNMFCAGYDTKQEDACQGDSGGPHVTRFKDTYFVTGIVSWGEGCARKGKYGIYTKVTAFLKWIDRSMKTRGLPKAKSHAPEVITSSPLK
T1 sequence (P03952 20-390 limits assumed): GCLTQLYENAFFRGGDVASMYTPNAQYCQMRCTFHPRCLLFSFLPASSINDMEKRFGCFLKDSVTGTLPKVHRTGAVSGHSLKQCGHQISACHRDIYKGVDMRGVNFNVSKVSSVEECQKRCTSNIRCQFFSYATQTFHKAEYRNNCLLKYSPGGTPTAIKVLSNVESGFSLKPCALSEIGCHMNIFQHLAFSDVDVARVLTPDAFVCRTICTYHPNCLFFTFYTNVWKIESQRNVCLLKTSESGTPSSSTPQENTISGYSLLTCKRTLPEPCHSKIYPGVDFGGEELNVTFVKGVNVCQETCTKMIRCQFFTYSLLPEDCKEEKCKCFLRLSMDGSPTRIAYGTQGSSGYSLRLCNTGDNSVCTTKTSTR
T1 sequence (P03952 391-638 limits assumed): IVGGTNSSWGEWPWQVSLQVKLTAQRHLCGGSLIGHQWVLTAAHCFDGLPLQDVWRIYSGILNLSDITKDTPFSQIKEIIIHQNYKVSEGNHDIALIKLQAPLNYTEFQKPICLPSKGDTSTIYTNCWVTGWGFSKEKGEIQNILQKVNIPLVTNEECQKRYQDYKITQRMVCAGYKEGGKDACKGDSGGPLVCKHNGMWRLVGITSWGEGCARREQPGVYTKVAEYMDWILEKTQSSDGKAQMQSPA
Coagulation factor VII/tissue factor, sequence (P08709 61-212 limits assumed): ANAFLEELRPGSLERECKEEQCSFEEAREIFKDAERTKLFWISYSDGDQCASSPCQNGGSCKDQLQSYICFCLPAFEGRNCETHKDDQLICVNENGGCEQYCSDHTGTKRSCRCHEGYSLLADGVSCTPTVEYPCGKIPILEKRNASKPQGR
Coagulation factor VII/tissue factor, sequence (P08709 213-466 limits assumed): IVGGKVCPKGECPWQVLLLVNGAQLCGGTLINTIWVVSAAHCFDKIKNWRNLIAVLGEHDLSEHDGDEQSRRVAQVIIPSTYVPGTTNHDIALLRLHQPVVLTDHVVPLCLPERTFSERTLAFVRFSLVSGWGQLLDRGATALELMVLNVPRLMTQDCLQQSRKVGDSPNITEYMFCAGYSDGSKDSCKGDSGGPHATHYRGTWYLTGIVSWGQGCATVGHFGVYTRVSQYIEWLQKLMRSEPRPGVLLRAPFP
Coagulation factor VII/tissue factor, sequence (P13726 33-295 partner limits assumed): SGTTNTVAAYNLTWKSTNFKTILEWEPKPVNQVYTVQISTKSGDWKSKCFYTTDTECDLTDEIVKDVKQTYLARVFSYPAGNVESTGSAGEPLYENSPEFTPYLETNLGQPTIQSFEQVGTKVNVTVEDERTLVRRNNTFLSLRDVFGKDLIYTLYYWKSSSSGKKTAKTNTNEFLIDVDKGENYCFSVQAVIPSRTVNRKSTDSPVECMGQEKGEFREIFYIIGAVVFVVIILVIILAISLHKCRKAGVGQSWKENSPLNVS

As to `O=C(Nc1ccccc1)c1cc2ccc(O)cc2oc1=O`, the half-inhibitory concentration (IC50) at Plasma kallikrein [1], at Prothrombin [4] and on Coagulation factor X [5] was more than 50 µM each time. For the same compound, the outcome in assay [2] and in assay [3] was inactive.

Consider `O=C(Nc1ccccc1)c1cc2cc(Br)ccc2oc1=O`, for which the result (at Prothrombin [6]; in assay [2]; at Plasma kallikrein [7]; at Coagulation factor X [8]) was inactive. Also, inhibition against Coagulation factor XII was half-maximal at 24 µM (IC50).

Turning to `Cc1ccc2oc(=O)c(C(=O)NC3CCCCC3)cc2c1`, the result (at Prothrombin [6]; in [2]; on Plasma kallikrein [7]; at Coagulation factor X [8]; in assay [3]) was inactive.

Turning to `Cc1cccc(NC(=O)c2cc3cc(Cl)cc(Cl)c3oc2=O)c1`, the result (on Prothrombin [6]; in [2]; at Plasma kallikrein [7]; at Coagulation factor X [8]) was inactive. For the same compound, at Coagulation factor XII, half-maximal inhibition (IC50) required 25 µM.

Take `Cc1cc(C)cc(NC(=O)c2cc3cc(Cl)cc(Br)c3oc2=O)c1`: the IC50 (in general, the concentration that inhibits the measured activity by half) was more than 50 µM against Plasma kallikrein [1]; 32 µM against Coagulation factor XII; more than 50 µM against Prothrombin [4]; more than 50 µM against Coagulation factor X [5]; more than 50 µM in [9].

Regarding `O=C(Nc1ccccc1)c1cc2cc(Cl)cc(Cl)c2oc1=O`, the result (on Prothrombin [6]; in assay [2]; at Coagulation factor X [8]) was inactive. In addition, the concentration for half-maximal inhibition (IC50) is more than 50 µM against Plasma kallikrein [1] and 19 µM at Coagulation factor XII.

Take `O=C(Nc1ccccc1)c1cc2ccccc2oc1=O`: the result (on Prothrombin [6]; in assay [2]; on Plasma kallikrein [7]; at Coagulation factor X [8]) was inactive. Further, inhibition at Coagulation factor XII was half-maximal at 42 µM (IC50).

Turning to `Cc1cccc(NC(=O)c2cc3cc(Cl)cc(Br)c3oc2=O)c1`, the result at Plasma kallikrein [7] and at Coagulation factor X [8] was inactive. In addition, the IC50 at Coagulation factor XII was 10 µM; at Prothrombin [4] it was more than 50 µM; in assay [9], more than 50 µM.

Consider `CCN(CC)c1ccc2cc(C(=O)Nc3ccccc3)c(=O)oc2c1`, for which the outcome (at Prothrombin [6]; on Coagulation factor X [8]; in [3]) was inactive. Moreover, the IC50 (against Plasma kallikrein [1]; in assay [9]) was more than 50 µM each time.

Take `Cc1cccc(NC(=O)c2cc3cc(C)ccc3oc2=O)c1`: the result (in assay [2]; on Plasma kallikrein [7]; on Coagulation factor X [8]) was inactive. Further, the IC50 at Coagulation factor XII was 10 µM; at Prothrombin [4], more than 50 µM.

In the case of `Cc1ccc2oc(=O)c(C(=O)Oc3ccccc3)cc2c1`, the result (at Prothrombin [6]; in assay [2]; at Plasma kallikrein [7]; on Coagulation factor X [8]; in assay [3]) was inactive.

In the case of `Cc1ccc2oc(=O)c(C(=O)Nc3cnc4ccccc4c3)cc2c1`, the result (on Prothrombin [6]; in assay [2]; on Plasma kallikrein [7]; on Coagulation factor X [8]) was inactive. The compound also returned an IC50 against Coagulation factor XII of 8.3 µM.

Consider `Cc1ccc2oc(=O)c(C(=O)NC34CC5CC(CC(C5)C3)C4)cc2c1`, for which the outcome (on Prothrombin [6]; in assay [2]; on Plasma kallikrein [7]; at Coagulation factor X [8]) was inactive. In addition, the IC50 against Coagulation factor XII amounted to 29 µM.

`COc1cccc2cc(C(=O)Nc3ccccc3)c(=O)oc12`: the 50% inhibitory concentration (IC50) against Plasma kallikrein [1] and at Coagulation factor X [5] was more than 50 µM throughout. Further, the outcome (in [2]; in assay [3]; on Prothrombin [4]) was inactive.

Consider `COc1cc(Br)cc2cc(C(=O)Nc3ccccc3)c(=O)oc12`, for which the outcome at Plasma kallikrein [7] and on Coagulation factor X [8] was inactive. Moreover, the 50% inhibitory concentration (IC50) (against Coagulation factor XII; against Prothrombin [4]; in assay [9]) was more than 50 µM each time.

`Cc1ccc2oc(=O)c(C(=O)NC(C)C)cc2c1`: the outcome (at Prothrombin [6]; on Coagulation factor X [8]; in assay [3]) was inactive. The IC50 (against Plasma kallikrein [1]; in assay [9]) was more than 50 µM each time.

Consider `Cc1ccc(NC(=O)c2cc3cc(C)ccc3oc2=O)cc1`, for which the outcome on Plasma kallikrein [7] and at Coagulation factor X [8] was inactive. The values for the IC50 (at Coagulation factor XII; on Prothrombin [4]; in assay [9]) were 20 µM, more than 50 µM and more than 50 µM, respectively.

For the compound `Cc1ccc2oc(=O)c(C(=O)NCCc3ccccc3)cc2c1`, the outcome (at Prothrombin [6]; in assay [2]; on Plasma kallikrein [7]; at Coagulation factor X [8]) was inactive. The compound also registered an IC50 against Coagulation factor XII of more than 50 µM.

For the compound `Cc1ccc2oc(=O)c(C(=O)Nc3cccc(Cl)c3)cc2c1`, the result (on Prothrombin [6]; in [2]; on Plasma kallikrein [7]; on Coagulation factor X [8]) was inactive. On Coagulation factor XII, half-maximal inhibition (IC50) required 31 µM.

Take `O=C(Nc1ccccc1)c1cc2cc([N+](=O)[O-])ccc2oc1=O`: the outcome (on Prothrombin [6]; in [2]; on Plasma kallikrein [7]; on Coagulation factor X [8]) was inactive. The compound also displayed an IC50 against Coagulation factor XII of 22 µM.

For the compound `Cc1ccc2oc(=O)c(C(=O)NC3CCCCCCCCCCC3)cc2c1`, the outcome (at Prothrombin [6]; in [2]; at Plasma kallikrein [7]; at Coagulation factor X [8]) was inactive. The half-maximal inhibitory concentration (IC50) on Coagulation factor XII was determined as 33 µM.

Consider `O=C(Oc1ccccc1)c1cc2ccccc2oc1=O`, for which the result (at Prothrombin [6]; in assay [2]; on Plasma kallikrein [7]; at Coagulation factor X [8]; in assay [3]) was inactive.

Turning to `Cc1ccc2oc(=O)c(C(=O)NCc3ccccc3)cc2c1`, the result (on Prothrombin [6]; in [2]; on Plasma kallikrein [7]; at Coagulation factor X [8]) was inactive. For the same compound, the IC50 on Coagulation factor XII was more than 50 µM.

As to `Cc1ccc2oc(=O)c(C(=O)NCc3cccc4ccccc34)cc2c1`, the outcome (in [2]; at Plasma kallikrein [7]; on Coagulation factor X [8]) was inactive. Also, the IC50 on Coagulation factor XII was 15 µM; against Prothrombin [4] it was more than 50 µM.

With `Cc1cc(C)cc(NC(=O)c2cc3cc(C)ccc3oc2=O)c1`, the outcome (in assay [2]; on Plasma kallikrein [7]; at Coagulation factor X [8]) was inactive. Further, the concentration for half-maximal inhibition (IC50) at Coagulation factor XII was 9.8 µM; against Prothrombin [4] it was more than 50 µM.

Regarding `Cc1ccc2oc(=O)c(C(=O)Nc3ccccc3Cl)cc2c1`, the result (in assay [2]; on Plasma kallikrein [7]; at Coagulation factor X [8]) was inactive. For the same compound, the IC50 against Coagulation factor XII is 30 µM; against Prothrombin [4] it was more than 50 µM.

Regarding `Cc1ccc2oc(=O)c(C(=O)Nc3ccc(Cl)cc3)cc2c1`, the outcome (in assay [2]; at Plasma kallikrein [7]; on Coagulation factor X [8]) was inactive. The 50% inhibitory concentration (IC50) at Coagulation factor XII is 34 µM; on Prothrombin [4] it was more than 50 µM.

For the compound `COc1ccc2cc(C(=O)Nc3ccccc3)c(=O)oc2c1`, the half-inhibitory concentration (IC50) against Plasma kallikrein [1], against Prothrombin [4] and on Coagulation factor X [5] was more than 50 µM throughout. Besides, the outcome in assay [2] and in assay [3] was inactive.

In the case of `O=C(Oc1ccccc1)c1cc2cc(CCl)ccc2oc1=O`, the result (in assay [2]; at Plasma kallikrein [7]) was inactive. In addition, the values for the IC50 on Coagulation factor XII, against Prothrombin [4] and on Coagulation factor X [5] were more than 50 µM, 7 µM and more than 50 µM, respectively.

For `Cc1ccc2oc(=O)c(C(=O)Nc3ccccc3C)cc2c1`, the outcome (in assay [2]; at Plasma kallikrein [7]; on Coagulation factor X [8]) was inactive. The IC50 against Coagulation factor XII was 32 µM; against Prothrombin [4], more than 50 µM.

Turning to `Cc1ccc2oc(=O)c(C(=O)Nc3ccccc3)cc2c1`, the half-inhibitory concentration (IC50) at Plasma kallikrein [1] is more than 50 µM; against Coagulation factor XII it was 23 µM; against Prothrombin [4], more than 50 µM. The outcome (in assay [2]; on Coagulation factor X [8]) was inactive.

On to `O=C(Nc1ccccc1)c1cc2cc(CCl)ccc2oc1=O`, for which the result (in [2]; at Plasma kallikrein [7]) was inactive. For the same compound, the concentration for half-maximal inhibition (IC50) is 17 µM at Coagulation factor XII, more than 50 µM against Prothrombin [4] and more than 50 µM against Coagulation factor X [5].
